Assay results: paper PMC7532676, “Salidroside can target both P4HB-mediated inflammation and melanogenesis of the skin” (Theranostics, 2020)

Biological target: prolyl 4-hydroxylase beta polypeptide (P4HB) (Homo sapiens, UniProt P07237)
Assay: surface plasmon resonance (Biacore […])
Type: binding

prolyl 4-hydroxylase beta polypeptide (P4HB), sequence (P07237 18-508): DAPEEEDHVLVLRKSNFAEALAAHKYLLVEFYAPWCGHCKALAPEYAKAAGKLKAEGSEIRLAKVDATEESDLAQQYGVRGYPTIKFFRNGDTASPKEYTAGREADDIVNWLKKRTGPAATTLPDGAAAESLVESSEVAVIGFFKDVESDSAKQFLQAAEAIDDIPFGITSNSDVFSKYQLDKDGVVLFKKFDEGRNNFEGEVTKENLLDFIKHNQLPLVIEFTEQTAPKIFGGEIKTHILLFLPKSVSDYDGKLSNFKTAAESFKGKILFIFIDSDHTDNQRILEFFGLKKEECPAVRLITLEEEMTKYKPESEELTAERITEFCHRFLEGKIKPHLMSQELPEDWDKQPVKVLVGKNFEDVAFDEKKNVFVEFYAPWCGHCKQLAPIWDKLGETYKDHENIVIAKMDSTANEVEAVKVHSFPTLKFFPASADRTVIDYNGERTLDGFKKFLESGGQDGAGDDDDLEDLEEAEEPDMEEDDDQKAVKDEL

Kd: 13.8 µM
Compound: OC[C@H]1O[C@@H](OCCc2ccc(O)cc2)[C@H](O)[C@@H](O)[C@@H]1O [SAL, Salidroside]
